Experimental data taken from the supplement of paper PMC10307832.

Legend:
Experiment in all cases: relative viability (nuclei count vs DMSO), 5 days (fraction); higher = more cells survive
[1] = compound: CC(C)N(CCCNC(=O)Nc1ccc(C(C)(C)C)cc1)C[C@H]1O[C@@H](n2ccc3c(N)ncnc32)[C@H](O)[C@@H]1O + Cc1nc(Nc2ncc(C(=O)Nc3c(C)cccc3Cl)s2)cc(N2CCN(CCO)CC2)n1 [Dasatinib] (partner 0.075 µM)
Outline: (§1)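 Relative viability was taken as the ratio of nuclei in treated wells to nuclei in vehicle wells. Lung cancer cell lines in 1536-well plates received compounds by pin tool one day after seeding, either one drug alone or a fixed anchor-drug dose plus five library-drug doses (not always all listed) in √10 steps. Nuclei were counted on 4× images after 5 days of treatment, and values are medians of duplicate plates.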

Shikonin + Decitabine = compound: CC(C)=CC[C@@H](O)C1=CC(=O)c2c(O)ccc(O)c2C1=O [Shikonin] + Nc1ncn([C@H]2C[C@H](O)[C@@H](CO)O2)c(=O)n1 [Decitabine] (partner 2 µM)
Outline: as §1

[2] = compound: CC(C)N(CCCNC(=O)Nc1ccc(C(C)(C)C)cc1)C[C@H]1O[C@@H](n2ccc3c(N)ncnc32)[C@H](O)[C@@H]1O + CCNC(=O)c1noc(-c2cc(C(C)C)c(O)cc2O)c1-c1ccc(CN2CCOCC2)cc1 [Luminespib] (partner 0.01 µM)
Outline: as §1

Shikonin + Bortezomib = compound: CC(C)=CC[C@@H](O)C1=CC(=O)c2c(O)ccc(O)c2C1=O [Shikonin] + CC(C)C[C@H](NC(=O)[C@H](Cc1ccccc1)NC(=O)c1cnccn1)B(O)O [Bortezomib] (partner 0.002 µM)
Outline: as §1

| Cell Line | relative viability ([1]; first compound 0.08 µM) | relative viability ([1]; first compound 0.253 µM) | relative viability ([1]; first compound 0.8 µM) | relative viability ([1]; first compound 2.53 µM) | relative viability ([1]; first compound 8 µM) | relative viability (Shikonin + Decitabine; first compound 0.01 µM) | relative viability (Shikonin + Decitabine; first compound 0.1 µM) | relative viability (Shikonin + Decitabine; first compound 0.3162 µM) | relative viability (Shikonin + Decitabine; first compound 1 µM) | relative viability ([2]; first compound 0.08 µM) | relative viability ([2]; first compound 0.253 µM) | relative viability ([2]; first compound 0.8 µM) | relative viability ([2]; first compound 2.53 µM) | relative viability ([2]; first compound 8 µM) | relative viability (Shikonin + Bortezomib; first compound 0.01 µM) | relative viability (Shikonin + Bortezomib; first compound 0.1 µM) | relative viability (Shikonin + Bortezomib; first compound 0.3162 µM) | relative viability (Shikonin + Bortezomib; first compound 1 µM) |
| --- | --- | --- | --- | --- | --- | --- | --- | --- | --- | --- | --- | --- | --- | --- | --- | --- | --- | --- |
| NCI-H1437 | 0.359 | 0.37 | 0.443 | 0.337 | 0.327 | 0.607 | 0.594 | 0.524 | 0.536 | 1.07 | 1.02 | 1.14 | 1.15 | 1.05 | 0.643 | 0.562 | 0.527 | 0.46 |
| NCI-H1650 | 0.347 | 0.379 | – | 0.275 | 0.349 | 0.379 | 0.355 | 0.424 | 0.389 | 0.207 | 0.218 | – | 0.208 | 0.226 | 0.269 | 0.212 | 0.191 | 0.171 |
| NCI-H1651 | 0.317 | 0.373 | 0.291 | 0.386 | 0.517 | 0.621 | 0.656 | 0.66 | 0.641 | 0.805 | 0.903 | 0.785 | 0.765 | 0.722 | 0.986 | 1.06 | 0.948 | 0.928 |
| NCI-H1666 | 0.874 | 0.796 | 0.799 | 0.813 | 0.705 | 0.668 | 0.779 | 0.82 | 0.734 | 0.963 | 0.987 | 1.07 | 0.999 | 0.941 | 0.799 | 0.879 | 0.819 | 0.729 |
| NCI-H1734 | 0.411 | 0.415 | 0.456 | 0.485 | 0.508 | 0.475 | 0.566 | 0.571 | 0.474 | 0.218 | 0.19 | 0.209 | 0.188 | 0.23 | 1.09 | 0.999 | 0.819 | 0.909 |
| NCI-H1755 | 0.373 | 0.44 | 0.418 | 0.428 | 0.429 | 0.735 | 0.768 | 0.761 | 0.712 | 0.553 | 0.53 | 0.367 | 0.43 | 0.349 | 0.978 | 1.1 | 1.11 | 0.98 |
| NCI-H1792 | 0.768 | 0.785 | 0.871 | 0.71 | 0.783 | 0.567 | 0.553 | 0.644 | 0.681 | 0.47 | – | 0.394 | 0.446 | 0.439 | 1.14 | 0.858 | 1.12 | 1.04 |
| NCI-H1915 | 0.311 | 0.34 | 0.311 | 0.323 | 0.314 | 0.271 | 0.286 | 0.268 | 0.258 | 0.757 | 0.819 | 0.676 | 0.789 | 0.77 | 1.01 | 1.15 | 1.06 | 1.06 |
| NCI-H1975 | 0.382 | 0.337 | 0.241 | 0.341 | 0.288 | 0.377 | 0.392 | 0.36 | 0.381 | 0.214 | 0.154 | – | 0.213 | 0.192 | 0.273 | 0.365 | 0.452 | 0.363 |
